The results in this text go back to ChEMBL document CHEMBL1201862, “PubChem BioAssay data set” (2004).

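Briefly, cells in 96-well plates were exposed to five compound concentrations for 48 h, and endpoints were estimated by linear interpolation. The concentration for 50% growth inhibition is given as GI50.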 The source made the active and inactive calls. No stated cut-off is given here; in the data, active = GI50 up to about 1.1 µM and inactive = higher.

Assay in all cases: growth of human tumour cells (NCI), 48 h
Experiment [1] has as its system DU-145.
Experiment [2] relates to SK-MEL-28.
Experiment [3] deals with SW-620.
The subject of experiment [4] is U-251.
Experiment [5] concerns SF-539.
Experiment [6] relates to CCRF-CEM.
Experiment [7] has as its system NCI/ADR-RES.
The subject of experiment [8] is HOP-62.
Experiment [9] deals with SF-268.
The test system of experiment [10] is OVCAR-5.
Experiment [11] concerns NCI-H23.
The test system of experiment [12] is OVCAR-3.
Experiment [13] deals with SR.
In experiment [14] the test system is 786-0.
In experiment [15] the test system is EKVX.
Experiment [16] has as its system RXF 393.
The subject of experiment [17] is NCI-H226.
For experiment [18], the system named is IGROV-1.
The subject of experiment [19] is KM12.
Experiment [20] has as its system MDA-N.

On to `Cc1cn2c(/C=N/NC(=N)N)c(-c3cccc([N+](=O)[O-])c3)nc2s1`, for which the GI50 in experiment [1] was 1.74 µM (inactive); in [2], 1.29 µM (inactive); in experiment [3], 0.661 µM (active); in experiment [4] it was 1.6 µM (inactive); in [5] it was 1.98 µM (inactive); in experiment [6], 0.532 µM (active). Also, the GI50 in [7] is 28.4 µM (inactive); in experiment [8], 1.38 µM (inactive); in [9], 1.08 µM (active); in experiment [10], 2.07 µM (inactive); in experiment [11], 2.39 µM (inactive); in experiment [12], 1.26 µM (inactive). Moreover, the GI50 in experiment [13] is 1.77 µM (inactive); in experiment [14], 1.47 µM (inactive); in experiment [15], 2.38 µM (inactive); in [16], 1.15 µM (inactive); in experiment [17] it was 1.91 µM (inactive); in [18], 5.56 µM (inactive). Besides, the GI50 in experiment [19] is 0.647 µM (active).
As to `O=[N+]([O-])c1ccc(SN=S=NSc2cccc(SN=S=NSc3ccc([N+](=O)[O-])cc3)c2)cc1`, the GI50 in experiment [20] was 30.8 µM (inactive); in experiment [2], 35.7 µM (inactive); in [3], 20.4 µM (inactive); in experiment [4], 16.4 µM (inactive); in experiment [6] it was 6 µM (inactive); in [7] it was 28 µM (inactive). For the same compound, the GI50 is 48.8 µM (inactive) in experiment [8]; 33 µM (inactive) in [9]; 25.4 µM (inactive) in [10]; 62.1 µM (inactive) in experiment [12]; 26.8 µM (inactive) in [13]; 13.8 µM (inactive) in experiment [14]. Further, the figures for the GI50 in [15], in experiment [18] and in [19] were 39.3 µM (inactive), 39.8 µM (inactive) and 34.2 µM (inactive), respectively.
`Clc1ccc(/C=c2\nc(-c3ccccc3)n3c2nc2ccccc23)cc1`: the GI50 in experiment [1] was > 100 µM (inactive); in experiment [2], 0.0465 µM (active); in [3] it was > 100 µM (inactive); in experiment [4], 49.1 µM (inactive); in experiment [5] it was 22.4 µM (inactive); in experiment [6], > 100 µM (inactive). Also, the GI50 was 28.2 µM (inactive) in experiment [7]; 38.4 µM (inactive) in experiment [8]; 34.4 µM (inactive) in experiment [9]; > 100 µM (inactive) in experiment [10]; > 100 µM (inactive) in experiment [11]; 51.9 µM (inactive) in experiment [12]. For the same compound, the GI50 in experiment [13] was > 100 µM (inactive); in [14], 56.8 µM (inactive); in experiment [15], 19.7 µM (inactive); in experiment [16] it was 28.7 µM (inactive); in experiment [17] it was > 100 µM (inactive); in experiment [18] it was > 100 µM (inactive). Besides, the GI50 in experiment [19] is > 100 µM (inactive).
As to `CO/C(=N\N=C\c1ccc(OC)cc1OC)c1ccncc1`, the GI50 in experiment [2], in [3], in [4], in [5], in experiment [6] and in experiment [7] was > 10 µM (inactive) in each case. Also, the GI50 in [8], in experiment [9], in [10], in experiment [11], in experiment [13] and in experiment [14] was > 10 µM (inactive) in each case. For the same compound, the GI50 in experiment [16], in experiment [17], in experiment [18] and in experiment [19] was > 10 µM (inactive) each time.
`CS/C(=N\Nc1cnc2ccccc2n1)NS(=O)(=O)c1cc(C)c(Cl)cc1Cl`: the GI50 in experiment [1], in experiment [2], in [3], in experiment [4], in [5] and in [6] was > 100 µM (inactive) in each case. The GI50 is 84.7 µM (inactive) in experiment [7]; > 100 µM (inactive) in [8]; > 100 µM (inactive) in experiment [9]; > 100 µM (inactive) in experiment [10]; > 100 µM (inactive) in experiment [11]; 59.6 µM (inactive) in experiment [12]. Also, the GI50 in experiment [14] is > 100 µM (inactive); in experiment [15], 29 µM (inactive); in experiment [16], > 100 µM (inactive); in [17], > 100 µM (inactive); in experiment [18], 21.1 µM (inactive); in [19] it was > 100 µM (inactive).
With `c1cn[nH]c1` [PYRAZOLE], the GI50 in experiment [20], in [2], in experiment [3], in experiment [4], in [5] and in [6] was > 10 µM (inactive) throughout. Moreover, the GI50 in [7], in experiment [8], in [9], in experiment [11], in experiment [12] and in [13] was > 10 µM (inactive) throughout. Moreover, the GI50 in experiment [14], in [15], in [16], in [17], in experiment [18] and in experiment [19] was > 10 µM (inactive) in each case.
With `CO[C@@]12C[C@H](CNC(=O)c3ccc[nH]3)O[C@@H]1NC(=O)N2`, the GI50 in experiment [1], in experiment [2], in experiment [3], in experiment [4], in experiment [5] and in [7] was > 100 µM (inactive) throughout. The GI50 in experiment [8], in experiment [9], in experiment [10], in experiment [11], in experiment [12] and in [13] was > 100 µM (inactive) throughout. In addition, the GI50 in experiment [14], in experiment [15], in [17], in experiment [18] and in experiment [19] was > 100 µM (inactive) in each case.
Turning to `Brc1ccc2[nH]cc([C@H]3CN[C@@H](c4c[nH]c5ccc(Br)cc45)CN3)c2c1`, the GI50 in experiment [1] is 2.23 µM (inactive); in experiment [2], 8.05 µM (inactive); in experiment [3], 2.51 µM (inactive); in experiment [4], 2.12 µM (inactive); in experiment [5], 2 µM (inactive); in experiment [6], 2.22 µM (inactive). The GI50 is 1.93 µM (inactive) in [7]; 3.37 µM (inactive) in experiment [8]; 2.65 µM (inactive) in experiment [9]; 2.75 µM (inactive) in experiment [10]; 1.6 µM (inactive) in experiment [11]; 1.79 µM (inactive) in experiment [12]. For the same compound, the GI50 is 1.92 µM (inactive) in experiment [13]; 2.29 µM (inactive) in experiment [14]; 2.61 µM (inactive) in experiment [15]; 2.65 µM (inactive) in [16]; 2.45 µM (inactive) in [17]; 1.87 µM (inactive) in [18]. For the same compound, in experiment [19], the GI50 was 1.76 µM (inactive).
Turning to `Cc1cc2c(cc1Cl)SC(c1ccccc1O)NS2(=O)=O` (centres undefined), the GI50 is 33.9 µM (inactive) in experiment [1]; 49.4 µM (inactive) in experiment [2]; 19.2 µM (inactive) in experiment [3]; 72.9 µM (inactive) in experiment [4]; 48.8 µM (inactive) in [5]; < 0.01 µM (active) in experiment [6]. Also, the GI50 is 30.7 µM (inactive) in [7]; > 100 µM (inactive) in [8]; 91.4 µM (inactive) in [9]; 40.1 µM (inactive) in [10]; 70.6 µM (inactive) in experiment [11]; 21.7 µM (inactive) in experiment [12]. Further, the GI50 in experiment [13] was 16.4 µM (inactive); in experiment [14], 34.7 µM (inactive); in experiment [15], 56.9 µM (inactive); in experiment [16] it was 53.5 µM (inactive); in [17], 86.5 µM (inactive); in [18] it was 42.4 µM (inactive). For the same compound, the GI50 in [19] is 94 µM (inactive).
Regarding `COc1cc2ccc3c4cc(OC)c(OC(C)C)cc4cnc3c2cc1OC`, the GI50 in experiment [2], in [3], in [4], in experiment [5], in experiment [6] and in [8] was > 100 µM (inactive) each time. The GI50 in experiment [9], in experiment [10], in [11], in [12], in experiment [13] and in experiment [14] was > 100 µM (inactive) in each case. For the same compound, the GI50 in experiment [15], in [16], in [17], in experiment [18] and in [19] was > 100 µM (inactive) throughout.
For the compound `OCc1ccc(C2CC(c3ccco3)=NN2c2ccccc2)o1` (centres undefined), the GI50 in experiment [2], in [3], in experiment [4], in experiment [5], in [6] and in experiment [8] was > 100 µM (inactive) throughout. Also, the GI50 in experiment [9], in [10], in experiment [11], in experiment [12], in experiment [13] and in [14] was > 100 µM (inactive) throughout. Further, the GI50 in experiment [15], in experiment [16], in [17], in experiment [18] and in experiment [19] was > 100 µM (inactive) in each case.
